Laboratory results from US20210017607A1, “Methods of Predicting Responsiveness to Cancer Therapies” (The University of Chicago, priority 2019, published 2021).

Legend:
[1] = tested on: B6-Myc (STING^hi) tumors; test: B6-Myc syngeneic tumor growth; format: in vivo, mouse; settings: immunocompetent syngeneic mice
Excerpt: Tumor volume curves for duration of treatment are shown. […] Data are represented relative to CD45+ immune cells.
Tumor volume curves for duration of treatment are shown.

[2] = tested on: ID8 ovarian cancer cells; test: ID8 cells in vitro STING pathway activation (western, ImageStream, ELISA); format: cell-based, mouse; settings: for STING pathway activation within ID8-PTEN^−/− cells / IFNB1 levels in combination with STING agonist DMXAA, ID8-PTEN^−/− cells: 36 hours; for IFNB1 levels in combination with STING agonist DMXAA, ID8-PTEN^−/− cells: ELISA
Procedure: FIGS. 56A and 56B. […] (56A) PTEN-proficient (PTEN^+/+) and deficient (PTEN^−/−) ID8 ovarian cancer cells were treated with DMXAA (50 μg/mL) for 0, 1, 6, 12, 24 and 36 hours. Nuclear extracts were probed for localization of p-IRF3 and p-NF-kB, markers of STING pathway activation. n=1 independent experiment. (56B) Wild-type (PTEN^+/+) and PTEN-deficient (PTEN^−/−) Myc-CAP (prostate) and ID8 (ovarian) cancer cells were treated with DMXAA (50 μg/mL) for 36 hours. The supernatants were analyzed by ELISA for IFN-β1 release. n=3 independent experiments.
FIGS. 57A-57C. […] PTEN-proficient (PTEN+/+) and deficient (PTEN−/−) ID8 ovarian cancer cells were treated with DMXAA (50 μg/mL) for 0, 12, 24 and 36 hours. (57A) The nuclear localization of p-IRF3 and p-NFkB was analyzed by ImageStream. The overlap of the two generates a white color that scores for nuclear localization of pIRF3. (57B) Graphical representation of nuclear localization of pIRF3 and p-NF-kB at 12, 24, and 36 hours after DMXAA treatment, relative to untreated groups in ID8 wild-type and PTEN^−/− cells. n=3 independent experiments.
FIGS. 58A and 58B. […] (58A) PTEN-proficient (PTEN^+/+) and deficient (PTEN^−/−) ID8 ovarian cancer cells were treated with IC90 concentrations of pan-PI3K inhibitors, either copanlisib (100 nM) or BKM120 (1000 nM) for 36 hours in presence or absence of STING agonists, DMXAA (50 μg/mL, 1 hour at the end of experiment). The activation status of both PI3K and STING signaling pathways were probed with the indicated antibodies by western blotting. n=2 independent experiments. (58B) Cells were treated as described in (58A), with the exception that concomitant DMXAA treatment was carried out for 36 hours. The supernatants were analyzed by ELISA for IFN-β1 release. n=3 independent experiments.
Cytokine Array/IFNβ1 ELISA. Supernatants from untreated or drug treated cancer cell lines and bone marrow derived macrophages were collected at 36 hours and spun down at 2000×g for 5 min at 4° C. to remove cellular debris. These clear supernatants were processed for detection of Type I Interferon by ELISA (LEGEND MAX™ Mouse IFNβ1 ELISA, Biolegend®) or for determination of a panel of cytokines/chemokines using LEGENDplex™ array (Mouse Anti-Virus Response Panel, Biolegend®) as per instructions in protocol provided.
Western blotting. RIPA buffer (Boston BioProducts) supplemented with protease (Roche®) and HALT phosphatase inhibitor cocktail (Thermo Scientific®) was used for preparation of total cell lysates. For western blotting, the following antibodies were used from Cell Signaling Technology®: Polyclonal rabbit anti-mouse-, phospho-AKT, total AKT, c-GAS, STING, phospho-IRF3, total IRF3, phospho-TBK1, total TBK1, PTEN, phospho NF-kB, total NF-kB, p53, lamin B1, β-actin, alpha-tubulin, and GAPDH. Images of scanned blots were processed using ADOBE Photoshop.
Image Stream Analysis. PTEN-proficient and deficient ID8 ovarian cancer cells were treated with DMXAA (50 ug/mL) for 0, 12, 24, and 36 hours. After termination at endpoints, cells were stained with primary antibodies—anti-mouse p-IRF3 (Cell Signaling Technology®), p-NFkB (Cell Signaling Technology®), followed by incubation with flurochrome tagged secondary antibodies and DAPI. Images of nuclear localization of p-IRF3 and p-NF-kB within single cells were acquired using ImageStreamg®^x Mark II (Amnis®) and data obtained was analyzed using IDEAS® software.

Row | SMILES | tumor growth response [1] | STING pathway activation after PTEN knockdown ([2]; DMXAA 50 μg/mL) | IRF3 translocation to the nucleus after PTEN knockdown ([2]; DMXAA 50 μg/mL, 0-36 hours) | STING pathway activation within ID8-PTEN^−/− cells [2] | IFNB1 levels in combination with STING agonist DMXAA, ID8-PTEN^−/− cells [2]
1 | Cc1ccc2c(=O)c3cccc(CC(=O)O)c3oc2c1C [DMXAA, 5,6-Dimethylxanthenone-4-acetic Acid] | phenocopied | abrogates STING pathway activation | abolishes IRF3 translocation to the nucleus |  | 
2 | CNCc1ccc(-c2[nH]c3cc(F)cc4c3c2CCNC4=O)cc1 [rucaparib] | de novo resistance |  |  |  | 
3 | Nc1cc(C(F)(F)F)c(-c2cc(N3CCOCC3)nc(N3CCOCC3)n2)cn1 [buparlisib] |  |  |  | partially restore STING pathway activation | unable to rescue IFNB1 levels
4 | COc1c(OCCCN2CCOCC2)ccc2c1N=C(NC(=O)c1cnc(N)nc1)N1CCN=C21 [copanlisib] |  |  |  | partially restore STING pathway activation | unable to rescue IFNB1 levels
